Measured values as given in the supplement of paper PMC10307832.

How the values were obtained:
Test in all cases: relative viability (nuclei count vs DMSO), 5 days (fraction); higher = more cells survive
HCC-827 = system: HCC-827
Procedure, shortened: (§1)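 Lung cancer cell lines, seeded in 1536-well plates, were treated the following day by pin tool with a single drug or with five library-drug doses (not always all listed) in √10 steps on top of a fixed anchor-drug dose. Cells were fixed and nuclei stained in one step after 5 days, and nuclei were counted. Relative viability is the nuclei count for treated wells divided by that for vehicle wells, reported as medians of duplicate plates.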

EKVX = system: EKVX
Procedure, shortened: as §1

NCI-H2405 = system: NCI-H2405
Procedure, shortened: as §1

NCI-H1355 = system: NCI-H1355
Procedure, shortened: as §1

NCI-H1792 = system: NCI-H1792
Procedure, shortened: as §1

NCI-H838 = system: NCI-H838
Procedure, shortened: as §1

LC-2-ad = system: LC-2-ad
Procedure, shortened: as §1

HARA = system: HARA
Procedure, shortened: as §1

NCI-H661 = system: NCI-H661
Procedure, shortened: as §1

SW 1573 = system: SW 1573
Procedure, shortened: as §1

COR-L23 = system: COR-L23
Procedure, shortened: as §1

UMC-11 = system: UMC-11
Procedure, shortened: as §1

EMC-BAC-2 = system: EMC-BAC-2
Procedure, shortened: as §1

HCC-15 = system: HCC-15
Procedure, shortened: as §1

NCI-H1755 = system: NCI-H1755
Procedure, shortened: as §1

NCI-H522 = system: NCI-H522
Procedure, shortened: as §1

NCI-H23 = system: NCI-H23
Procedure, shortened: as §1

H3255 = system: H3255
Procedure, shortened: as §1

NCI-H2126 = system: NCI-H2126
Procedure, shortened: as §1

NCI-H520 = system: NCI-H520
Procedure, shortened: as §1

NCI-H1915 = system: NCI-H1915
Procedure, shortened: as §1

SW 900 = system: SW 900
Procedure, shortened: as §1

RERF-LC-KJ = system: RERF-LC-KJ
Procedure, shortened: as §1

LCLC-97TM1 = system: LCLC-97TM1
Procedure, shortened: as §1

NCI-H3122 = system: NCI-H3122
Procedure, shortened: as §1

In the case of Nc1cccc2c1CN(C1CCC(=O)NC1=O)C2=O (stereo unspecified) [Lenalidomide] + CC(=O)Nc1cccc(-n2c(=O)n(C3CC3)c(=O)c3c(Nc4ccc(I)cc4F)n(C)c(=O)c(C)c32)c1 [Trametinib] (partner 0.02 µM), the relative viability (HCC-827; first compound 0.253 µM) is reported as 0.462, the relative viability (HCC-827; first compound 0.8 µM) is reported as 0.594 and the relative viability (HCC-827; first compound 2.53 µM) is reported as 0.518. It also gave a relative viability (HCC-827; first compound 8 µM) of 0.52, a relative viability (EKVX; first compound 0.253 µM) of 0.391 and a relative viability (EKVX; first compound 0.8 µM) of 0.32. The relative viability (EKVX; first compound 2.53 µM) was 0.432, the relative viability (EKVX; first compound 8 µM) was 0.328 and the relative viability (NCI-H2405; first compound 0.253 µM) was 0.648. The relative viability (NCI-H2405; first compound 0.8 µM) was 0.657, the relative viability (NCI-H2405; first compound 2.53 µM) was 0.654 and the relative viability (NCI-H2405; first compound 8 µM) was 0.546. For the same compound, the relative viability (NCI-H1355; first compound 0.253 µM) was 0.431, the relative viability (NCI-H1355; first compound 0.8 µM) was 0.316 and the relative viability (NCI-H1355; first compound 2.53 µM) was 0.402. It also gave a relative viability (NCI-H1355; first compound 8 µM) of 0.267, a relative viability (NCI-H1792; first compound 0.253 µM) of 0.445 and a relative viability (NCI-H1792; first compound 0.8 µM) of 0.369. It also gave a relative viability (NCI-H1792; first compound 2.53 µM) of 0.59, a relative viability (NCI-H1792; first compound 8 µM) of 0.366 and a relative viability (NCI-H838; first compound 0.253 µM) of 0.517. The relative viability (NCI-H838; first compound 0.8 µM) was 0.463, the relative viability (NCI-H838; first compound 2.53 µM) was 0.625 and the relative viability (NCI-H838; first compound 8 µM) was 0.378. The relative viability (LC-2-ad; first compound 0.253 µM) was 0.868, the relative viability (LC-2-ad; first compound 0.8 µM) was 0.943 and the relative viability (LC-2-ad; first compound 2.53 µM) was 0.972. The relative viability (LC-2-ad; first compound 8 µM) was 0.968, the relative viability (HARA; first compound 0.253 µM) was 0.715 and the relative viability (HARA; first compound 2.53 µM) was 0.542. The relative viability (HARA; first compound 8 µM) was 1.04, the relative viability (NCI-H661; first compound 0.253 µM) was 0.529 and the relative viability (NCI-H661; first compound 0.8 µM) was 0.593. For the same compound, the relative viability (NCI-H661; first compound 2.53 µM) was 0.591, the relative viability (NCI-H661; first compound 8 µM) was 0.533 and the relative viability (SW 1573; first compound 0.253 µM) was 0.583. For the same compound, the relative viability (SW 1573; first compound 0.8 µM) was 0.67, the relative viability (SW 1573; first compound 2.53 µM) was 0.583 and the relative viability (SW 1573; first compound 8 µM) was 0.596. For the same compound, the relative viability (COR-L23; first compound 0.253 µM) was 0.613, the relative viability (COR-L23; first compound 0.8 µM) was 0.677 and the relative viability (COR-L23; first compound 2.53 µM) was 0.678. It also gave a relative viability (COR-L23; first compound 8 µM) of 0.508, a relative viability (UMC-11; first compound 0.253 µM) of 0.514 and a relative viability (UMC-11; first compound 0.8 µM) of 0.449. For the same compound, the relative viability (UMC-11; first compound 2.53 µM) was 0.885, the relative viability (UMC-11; first compound 8 µM) was 0.472 and the relative viability (EMC-BAC-2; first compound 0.253 µM) was 0.888. For the same compound, the relative viability (EMC-BAC-2; first compound 0.8 µM) was 0.848, the relative viability (EMC-BAC-2; first compound 2.53 µM) was 0.922 and the relative viability (EMC-BAC-2; first compound 8 µM) was 0.747. For the same compound, the relative viability (HCC-15; first compound 0.253 µM) was 0.412, the relative viability (HCC-15; first compound 0.8 µM) was 0.427 and the relative viability (HCC-15; first compound 2.53 µM) was 0.377. The relative viability (HCC-15; first compound 8 µM) was 0.334, the relative viability (NCI-H1755; first compound 0.253 µM) was 0.729 and the relative viability (NCI-H1755; first compound 0.8 µM) was 0.806. For the same compound, the relative viability (NCI-H1755; first compound 2.53 µM) was 0.766, the relative viability (NCI-H1755; first compound 8 µM) was 0.63 and the relative viability (NCI-H522; first compound 0.253 µM) was 0.813. For the same compound, the relative viability (NCI-H522; first compound 0.8 µM) was 0.803, the relative viability (NCI-H522; first compound 2.53 µM) was 0.725 and the relative viability (NCI-H522; first compound 8 µM) was 0.623. It also gave a relative viability (NCI-H23; first compound 0.253 µM) of 0.398, a relative viability (NCI-H23; first compound 2.53 µM) of 0.426 and a relative viability (NCI-H23; first compound 8 µM) of 0.412. It also gave a relative viability (H3255; first compound 0.253 µM) of 0.547, a relative viability (H3255; first compound 0.8 µM) of 0.624 and a relative viability (H3255; first compound 2.53 µM) of 0.661. For the same compound, the relative viability (H3255; first compound 8 µM) was 0.541, the relative viability (NCI-H2126; first compound 0.253 µM) was 0.572 and the relative viability (NCI-H2126; first compound 0.8 µM) was 0.526. It also gave a relative viability (NCI-H2126; first compound 2.53 µM) of 0.597, a relative viability (NCI-H2126; first compound 8 µM) of 0.462 and a relative viability (NCI-H520; first compound 0.253 µM) of 0.732. For the same compound, the relative viability (NCI-H520; first compound 0.8 µM) was 0.615, the relative viability (NCI-H520; first compound 2.53 µM) was 0.835 and the relative viability (NCI-H520; first compound 8 µM) was 0.452. It also gave a relative viability (NCI-H1915; first compound 0.253 µM) of 0.306, a relative viability (NCI-H1915; first compound 0.8 µM) of 0.319 and a relative viability (NCI-H1915; first compound 2.53 µM) of 0.323. For the same compound, the relative viability (NCI-H1915; first compound 8 µM) was 0.283, the relative viability (SW 900; first compound 2.53 µM) was 1 and the relative viability (SW 900; first compound 8 µM) was 0.76. The relative viability (RERF-LC-KJ; first compound 0.253 µM) was 0.875, the relative viability (RERF-LC-KJ; first compound 0.8 µM) was 0.886 and the relative viability (RERF-LC-KJ; first compound 2.53 µM) was 0.915. The relative viability (RERF-LC-KJ; first compound 8 µM) was 0.85, the relative viability (LCLC-97TM1; first compound 0.253 µM) was 0.183 and the relative viability (LCLC-97TM1; first compound 0.8 µM) was 0.239. For the same compound, the relative viability (LCLC-97TM1; first compound 2.53 µM) was 0.212, the relative viability (LCLC-97TM1; first compound 8 µM) was 0.159 and the relative viability (NCI-H3122; first compound 0.253 µM) was 0.234. The relative viability (NCI-H3122; first compound 0.8 µM) was 0.246, the relative viability (NCI-H3122; first compound 2.53 µM) was 0.253 and the relative viability (NCI-H3122; first compound 8 µM) was 0.205.
